Patent US8742100B2, “Small molecule inhibitors of isoprenylcysteine carboxyl methyltransferase with potential anticancer activity” (National University of Singapore, priority 2009, dated 2014)
Read-outs that look alike come from different tables or passages of the source.

Legend:
[1] = system: MDA-MB-231 human breast cells; experiment: Proliferation assay, CellTiter 96 AQueous One Solution (MTS); type: cell-based; conditions: for inhibition at 10 µM: read-out: inhibition in initial screen at a fixed concentration
Method: (§1) The MDA-MB-231 human breast cells were maintained at 37° C. with 5% CO2 in DMEM (Sigma) supplemented with 10% fetal bovine serum (FBS, Hyclone), 50 U/ml penicillin (Gibco), and 50 μg/ml streptomycin (Gibco). […] The relative number of the live cells was determined using the CellTiter® 96 AQueous One Solution Cell Proliferation Assay (Promega). Each condition was performed in triplicate, and data presented represent that obtained from at least two separate experiments.
as §1, with “to date were” for “represent that”, “one determination.” for “at least two separate experiments.”

Icmt = molecular target: T1, Icmt (Homo sapiens, UniProt O60725); experiment: Measurement of ICMT activity: incorporation of 3H from [3H]AdoMet into biotin-S-farnesyl L-cysteine, Sf9 membranes containing ICMT; type: biochemical; conditions: mean of two separate determinations; ±SD where more than two; read-out: IC50 Icmt inhibition
T1 construct: host or cells: Sf9 membranes
T1 sequence (O60725 whole entry, species assumed): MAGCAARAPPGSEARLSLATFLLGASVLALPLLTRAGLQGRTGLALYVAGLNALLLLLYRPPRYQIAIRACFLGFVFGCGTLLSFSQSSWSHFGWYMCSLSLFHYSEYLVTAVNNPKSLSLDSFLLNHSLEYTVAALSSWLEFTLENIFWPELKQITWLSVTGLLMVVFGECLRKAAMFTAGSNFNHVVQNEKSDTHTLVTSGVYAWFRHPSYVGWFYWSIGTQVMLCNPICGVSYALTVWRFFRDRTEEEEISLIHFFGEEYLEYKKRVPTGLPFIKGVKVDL
Method: (§2) Measurement of ICMT activity. Icmt activity was determined by following incorporation of ^3H from [^3H]AdoMet (Amersham Biosciences) into the small molecule substrate biotin-S-farnesyl L-cysteine (BFC). Inhibitors were first incubated at 37° C. for 20 min, with the Sf9 membranes containing ICMT. An assay mixture containing 4 μM BFC and 5 μM [^3H]AdoMet in 100 mM Hepes, pH 7.4 and 5 mM MgCl2 was added to initiate the reaction. Reactions were carried out at 37° C. for 20 min, and terminated by addition of 10% Tween 20 and streptavidin beads (GE Healthcare, 10 uL of packed beads suspended in 500 μL of 20 mM NaH2PO4, pH 7.4, containing 150 mM NaCl). The mixtures were mixed by gentle agitation overnight at 4° C. The beads were harvested by centrifugation in a tabletop microcentrifuge at 10,000 rpm for 5 min and washed three times with 500 μL of 20 mM NaH2PO4, pH 7.4, containing 150 mM NaCl. The beads were then suspended in the same buffer, transferred to scintillation vials, and radioactivity determined.
as §2, with “Activity.” for “activity.”

[2] = Binding to fetal bovine serum (plasma protein binding), centrifugal filter device, HPLC; type: in vitro ADME; conditions: bovine, 5% w/v fetal bovine serum in phosphate buffered saline; for fraction unbound at 30 min, 1 µM / fraction unbound at 30 min, 4 µM / fraction unbound at 30 min, 10 µM / fraction unbound at 30 min, 25 µM: 5% fetal bovine serum in PBS; for fraction unbound at 30 min: all conc (1, 4, 10, 25 uM), read-out: % Bound Average, all conc (converted)
Method: (§3) Semi-automatic high-throughput determination of plasma protein binding using a 96-well plate filtrate assembly and fast liquid chromatography—tandem mass spectrometry. […] Stock solutions were prepared in DMSO at 100× higher concentrations. A 5% w/v solution of fetal bovine serum in phosphate buffered saline was prepared. An aliquot (10 μL of the stock solution was added to 990 μL of the PBS solution containing 5% fetal bovine serum in a glass tube which was then incubated in a shaking water bath at 37° C. for 30 min. 500 μL of the solution was then transferred to a centrifugal filter device (Amicon Ultra 0.5 ml # UFC503096) and centrifuged at 14 000g, 15 min. After this time, the filter units were removed and placed (upside down) in a collecting tube containing 477 μL, of PBS. The latter was centrifuged at 2000g, 2 min to obtain the retentate. […] J.

fetal bovine serum = experiment: as above; type: in vitro ADME; conditions: fetal bovine serum
Method: as §3

[3] = Homo sapiens, MDA-MB-231, 72 h, MDA-MB-231 cells, MTS colorimetric assay, 72 h, one determination
[4] = Homo sapiens, MDA-MB-231 cells, MTS colorimetric assay, 72 h, one determination, read-out: IC50
[5] = Homo sapiens, MDA-MB-231 cells, 72 h, mean of two separate determinations, ±SD where more than two, read-out: IC50 Antiproliferative activity
[6] = Homo sapiens, MDA-MB-231, 72 h, read-out: IC50 Antiproliferative activity, MDA-MB-231 cells, 72 h, mean of two separate determinations, ±SD where more than two
[7] = read-out: % Bound Average (converted)
[8] = read-out: % Bound Run 1 (converted)
[9] = read-out: % Bound Run 2 (converted)
[10] = read-out: % Bound Run 3 (converted)

CCCCCCCCn1cc(CN(C)C)c2cc(F)ccc21 [6-9(1), 1-(5-fluoro-1-octyl-1H-indol-3-yl)-N,N-dimethylmethanamine]
IC50 [1, 3]: 4.9 µM

CCCCCCCCn1cc(CN2CCCCC2)c2cc(F)ccc21 [6-9(2), 5-fluoro-1-octyl-3-(piperidin-1-ylmethyl)-1H-indole]
IC50 [1, 3]: 2.3 µM

CCCCCCCCn1cc(CN2CCSCC2)c2cc(F)ccc21 [6-9(3), 4-((5-fluoro-1-octyl-1H-indol-3-yl)methyl)thiomorpholine]
inhibition at 10 µM ([1]; Homo sapiens, MDA-MB-231 cells): ~45%

CCCCCCCCn1cc(CN2CCOCC2)c2cc(F)ccc21 [6-9(4), 4-((5-fluoro-1-octyl-1H-indol-3-yl)methyl)morpholine]
IC50 [1, 4]: 3.2 µM

CCCCCCCCn1cc(CN2CCCC2)c2cc(F)ccc21 [6-9(5), 5-fluoro-1-octyl-3-(pyrrolidin-1-ylmethyl)-1H-indole]
IC50 [1, 4]: 2.2 µM

CCCCCCCCn1cc(CN2CCN(C)CC2)c2cc(F)ccc21 [6-9(6), 5-fluoro-3-((4-methylpiperazin-1-yl)methyl)-1-octyl-1H-indole]
inhibition at 10 µM ([1]; Homo sapiens, MDA-MB-231 cells): ~45%

CCCCCCCCn1cc(CC(N)=O)c2cc(F)ccc21 [Compound 1-8, 2-(5-Fluoro-1-octyl-1H-indol-3-yl)acetamide]
IC50 (Icmt): 7 µM | IC50 [1, 5]: 70 µM

CCCCCCCCn1cc(CC(=O)N2CCN(C)CC2)c2cc(-c3cccc(C)c3)ccc21 [Compound 3-6, 1-(4-Methylpiperazin-1-yl)-2-(1-octyl-5-m-tolyl-1H-indol-3-yl)ethanone]
IC50 (Icmt): 1.7 ± 0.4 µM | IC50 [1, 6]: 19.7 ± 0.9 µM

CCCCCCCCn1cc(CC(=O)NC)c2cc(-c3cccc(C)c3)ccc21 [Compound 3-7, N-Methyl-2-(1-octyl-5-m-tolyl-1H-indol-3-yl)acetamide]
IC50 (Icmt): 2.1 µM | IC50 [1, 5]: 4.7 µM

CCCCCCCCn1cc(C(N)=O)c2cc(-c3cccc(C)c3)ccc21 [Compound 5-1, 1-Octyl-5-m-tolyl-1H-indole-3-carboxamide]
IC50 (Icmt): 30 µM | IC50 [1, 6]: > 100 µM

CCCCCCCCn1cc(CCC(N)=O)c2cc(-c3cccc(C)c3)ccc21 [Compound 5-2, 3-(1-Octyl-5-m-tolyl-1H-indol-3-yl)propanamide]
IC50 (Icmt): 1.2 µM | IC50 [1, 5]: 20.7 µM

CC(C)=CCn1ccc2cc(-c3cccc(C)c3)ccc21 [Compound 6-3, 1-(3-Methylbut-2-enyl)-5-m-tolyl-1H-indole]
IC50 (Icmt): > 100 µM | IC50 [1, 5]: > 100 µM

CC(C)=CCn1cc(CN2CCOCC2)c2cc(-c3cccc(C)c3)ccc21 [Compound 6-6, 4-((1-(3-methylbut-2-enyl)-5-m-tolyl-1H-indol-3-yl)methyl)morpholine]
IC50 (Icmt): 2 ± 0.8 µM | IC50 [1, 6]: 34 ± 3 µM

CC(C)=CCn1cc(CC(N)=O)c2cc(F)ccc21 [Compound 6-8, 2-(5-Fluoro-1-(3-methylbut-2-enyl)-1H-indol-3-yl)acetamide]
IC50 (Icmt): 69 µM | IC50 [1, 5]: > 100 µM

CCCCCCCCn1cc(CN(CC)CC)c2cc(F)ccc21 [Compound 6-9, N-ethyl-N-((5-fluoro-1-octyl-1H-indol-3-yl)methyl)ethanamine]
IC50 [1, 3]: 2.7 µM | IC50 ([1]; MDA-MB-231 cells, MTS colorimetric assay, 72 h, one determination): 2 µM

CCCCCCCCn1cc(CN(CC)CC)c2cc(-c3cccc(C)c3)ccc21 [Compound J17G, N-ethyl-N-((1-octyl-5-m-tolyl-1H-indol-3-yl)methyl)ethanamine]
fraction unbound at 30 min, 1 µM [2, 7]: 0.182 | fraction unbound at 30 min, 1 µM [2, 8]: 0.17 | fraction unbound at 30 min, 1 µM [2, 9]: 0.224 | fraction unbound at 30 min, 1 µM [2, 10]: 0.151 | fraction unbound at 30 min, 4 µM [2, 7]: 0.272 | fraction unbound at 30 min, 4 µM [2, 8]: 0.274 | fraction unbound at 30 min, 4 µM [2, 9]: 0.301 | fraction unbound at 30 min, 4 µM [2, 10]: 0.243 | fraction unbound at 30 min, 10 µM [2, 7]: 0.299 | fraction unbound at 30 min, 10 µM [2, 8]: 0.317 | fraction unbound at 30 min, 10 µM [2, 9]: 0.353 | fraction unbound at 30 min, 10 µM [2, 10]: 0.226 | fraction unbound at 30 min, 25 µM [2, 7]: 0.304 | fraction unbound at 30 min, 25 µM [2, 8]: 0.286 | fraction unbound at 30 min, 25 µM [2, 9]: 0.352 | fraction unbound at 30 min, 25 µM [2, 10]: 0.275 | fraction unbound at 30 min [2]: 0.264 | binding capacity compared with cysmethynil (fetal bovine serum): lower binding capacities than cysmethynil

CCCCCCCCn1cc(CC(N)=O)c2cc(-c3cccc(C)c3)ccc21 [cysmethynil, 2-(1-octyl-5-m-tolyl-1H-indol-3-yl) acetamide, reference compound]
IC50 (Icmt): 1.5 µM | fraction unbound at 30 min, 1 µM [2, 7]: 0.0962 | fraction unbound at 30 min, 1 µM [2, 8]: 0.107 | fraction unbound at 30 min, 1 µM [2, 9]: 0.0611 | fraction unbound at 30 min, 1 µM [2, 10]: 0.12 | fraction unbound at 30 min, 4 µM [2, 7]: 0.104 | fraction unbound at 30 min, 4 µM [2, 8]: 0.0557 | fraction unbound at 30 min, 4 µM [2, 9]: 0.124 | fraction unbound at 30 min, 4 µM [2, 10]: 0.131 | fraction unbound at 30 min, 10 µM [2, 7]: 0.0945 | fraction unbound at 30 min, 10 µM [2, 8]: 0.136 | fraction unbound at 30 min, 10 µM [2, 9]: 0.0943 | fraction unbound at 30 min, 10 µM [2, 10]: 0.0538 | fraction unbound at 30 min, 25 µM [2, 7]: 0.122 | fraction unbound at 30 min, 25 µM [2, 8]: 0.219 | fraction unbound at 30 min, 25 µM [2, 9]: 0.0636 | fraction unbound at 30 min, 25 µM [2, 10]: 0.0844 | fraction unbound at 30 min [2]: 0.104
